ChEMBL document CHEMBL1201862, “PubChem BioAssay data set” (2004)
Calls of active or inactive are those of the source.

Columns and labels:
[1] = target: Peroxisome proliferator-activated receptor gamma/Nuclear receptor corepressor 2 (Homo sapiens, UniProt P37231+Q9Y618); assay: Counterscreen for NR2E3 inverse agonists: TR-FRET-based biochemical high throughput dose response assay to identify inverse agonists of the interaction between peroxisome proliferator-activated receptor gamma (PPARg) and nuclear receptor co-repressor 2 (NCOR2).; assay type: functional
Peroxisome proliferator-activated receptor gamma/Nuclear receptor corepressor 2, sequence (P37231 whole entry): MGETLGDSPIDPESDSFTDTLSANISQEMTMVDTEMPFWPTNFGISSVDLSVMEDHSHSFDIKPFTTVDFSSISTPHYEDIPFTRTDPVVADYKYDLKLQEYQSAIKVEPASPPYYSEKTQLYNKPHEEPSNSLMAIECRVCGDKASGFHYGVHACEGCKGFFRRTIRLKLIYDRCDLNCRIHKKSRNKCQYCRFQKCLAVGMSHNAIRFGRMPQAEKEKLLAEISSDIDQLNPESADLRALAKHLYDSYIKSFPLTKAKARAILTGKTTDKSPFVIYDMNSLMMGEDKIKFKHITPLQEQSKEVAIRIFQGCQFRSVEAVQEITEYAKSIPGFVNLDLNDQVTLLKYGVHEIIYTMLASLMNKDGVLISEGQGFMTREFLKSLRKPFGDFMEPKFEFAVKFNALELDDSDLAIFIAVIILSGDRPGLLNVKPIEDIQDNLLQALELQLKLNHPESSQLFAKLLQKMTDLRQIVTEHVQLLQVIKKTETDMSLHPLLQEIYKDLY
Peroxisome proliferator-activated receptor gamma/Nuclear receptor corepressor 2, sequence (Q9Y618 whole entry): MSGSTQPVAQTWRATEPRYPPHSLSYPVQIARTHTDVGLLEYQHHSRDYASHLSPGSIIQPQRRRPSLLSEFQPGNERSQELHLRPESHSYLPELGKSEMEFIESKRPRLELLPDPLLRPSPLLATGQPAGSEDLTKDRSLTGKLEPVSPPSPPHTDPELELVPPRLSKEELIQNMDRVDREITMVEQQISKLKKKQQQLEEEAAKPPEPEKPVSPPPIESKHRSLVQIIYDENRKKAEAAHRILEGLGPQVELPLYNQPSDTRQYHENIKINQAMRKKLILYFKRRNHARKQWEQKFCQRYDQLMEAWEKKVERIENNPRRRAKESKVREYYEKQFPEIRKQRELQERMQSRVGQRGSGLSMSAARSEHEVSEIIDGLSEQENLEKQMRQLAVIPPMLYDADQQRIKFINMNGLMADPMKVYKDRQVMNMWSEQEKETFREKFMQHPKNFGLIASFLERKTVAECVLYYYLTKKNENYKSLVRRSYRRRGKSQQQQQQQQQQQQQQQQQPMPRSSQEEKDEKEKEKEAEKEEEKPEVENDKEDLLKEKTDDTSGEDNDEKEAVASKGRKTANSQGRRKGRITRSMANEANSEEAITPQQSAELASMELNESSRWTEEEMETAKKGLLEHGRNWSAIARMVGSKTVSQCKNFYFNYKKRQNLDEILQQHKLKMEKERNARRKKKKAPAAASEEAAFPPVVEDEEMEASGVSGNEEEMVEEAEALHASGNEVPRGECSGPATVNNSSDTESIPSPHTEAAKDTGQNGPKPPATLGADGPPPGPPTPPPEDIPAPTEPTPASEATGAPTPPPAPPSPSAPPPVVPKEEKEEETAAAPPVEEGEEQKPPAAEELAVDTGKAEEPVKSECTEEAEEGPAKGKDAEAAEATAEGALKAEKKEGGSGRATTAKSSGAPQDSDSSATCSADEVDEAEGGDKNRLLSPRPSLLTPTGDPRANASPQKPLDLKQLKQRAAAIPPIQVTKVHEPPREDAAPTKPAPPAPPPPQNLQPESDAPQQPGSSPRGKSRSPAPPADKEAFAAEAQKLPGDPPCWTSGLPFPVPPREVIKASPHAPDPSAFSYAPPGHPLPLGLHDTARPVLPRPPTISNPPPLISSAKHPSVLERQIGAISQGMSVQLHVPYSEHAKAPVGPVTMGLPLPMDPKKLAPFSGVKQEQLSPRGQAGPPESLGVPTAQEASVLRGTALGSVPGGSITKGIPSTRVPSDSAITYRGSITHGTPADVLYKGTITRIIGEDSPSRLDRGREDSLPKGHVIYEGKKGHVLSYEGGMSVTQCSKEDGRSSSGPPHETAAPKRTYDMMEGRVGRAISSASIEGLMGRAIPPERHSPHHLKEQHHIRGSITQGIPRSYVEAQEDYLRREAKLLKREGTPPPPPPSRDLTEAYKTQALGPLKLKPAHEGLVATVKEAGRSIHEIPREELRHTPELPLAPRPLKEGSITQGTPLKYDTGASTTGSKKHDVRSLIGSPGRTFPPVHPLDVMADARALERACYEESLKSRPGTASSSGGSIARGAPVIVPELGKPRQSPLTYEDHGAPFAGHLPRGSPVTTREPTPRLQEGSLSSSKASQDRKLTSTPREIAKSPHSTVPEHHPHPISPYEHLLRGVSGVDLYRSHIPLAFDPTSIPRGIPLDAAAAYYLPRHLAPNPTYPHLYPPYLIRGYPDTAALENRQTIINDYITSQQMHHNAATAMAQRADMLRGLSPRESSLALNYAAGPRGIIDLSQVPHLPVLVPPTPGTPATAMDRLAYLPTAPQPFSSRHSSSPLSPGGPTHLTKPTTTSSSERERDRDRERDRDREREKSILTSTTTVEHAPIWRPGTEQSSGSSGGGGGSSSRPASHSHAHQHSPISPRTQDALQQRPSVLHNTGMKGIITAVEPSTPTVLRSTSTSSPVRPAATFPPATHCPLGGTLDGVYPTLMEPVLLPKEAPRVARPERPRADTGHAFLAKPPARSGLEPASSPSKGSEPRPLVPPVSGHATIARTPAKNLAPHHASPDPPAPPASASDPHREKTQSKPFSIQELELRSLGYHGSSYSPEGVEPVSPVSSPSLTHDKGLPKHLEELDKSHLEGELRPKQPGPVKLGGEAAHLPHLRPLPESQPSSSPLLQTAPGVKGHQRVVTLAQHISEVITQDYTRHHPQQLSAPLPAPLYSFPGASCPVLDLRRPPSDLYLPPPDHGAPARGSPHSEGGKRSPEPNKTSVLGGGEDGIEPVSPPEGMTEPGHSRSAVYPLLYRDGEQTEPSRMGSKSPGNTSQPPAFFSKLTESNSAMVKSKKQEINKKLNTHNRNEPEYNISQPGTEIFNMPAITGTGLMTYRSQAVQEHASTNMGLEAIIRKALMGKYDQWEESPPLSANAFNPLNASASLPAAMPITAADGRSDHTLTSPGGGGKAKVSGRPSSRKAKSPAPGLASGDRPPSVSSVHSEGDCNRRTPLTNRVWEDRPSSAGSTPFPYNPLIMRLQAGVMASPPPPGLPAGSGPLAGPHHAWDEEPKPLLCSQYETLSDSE

[2] = target: Photoreceptor-specific nuclear receptor (Homo sapiens, UniProt Q9Y5X4); assay: ligands suppressing NR2E3 nuclear receptor activity – biochemical, TR-FRET, dose response (AID 463256); assay type: functional
Photoreceptor-specific nuclear receptor, sequence (Q9Y5X4 whole entry): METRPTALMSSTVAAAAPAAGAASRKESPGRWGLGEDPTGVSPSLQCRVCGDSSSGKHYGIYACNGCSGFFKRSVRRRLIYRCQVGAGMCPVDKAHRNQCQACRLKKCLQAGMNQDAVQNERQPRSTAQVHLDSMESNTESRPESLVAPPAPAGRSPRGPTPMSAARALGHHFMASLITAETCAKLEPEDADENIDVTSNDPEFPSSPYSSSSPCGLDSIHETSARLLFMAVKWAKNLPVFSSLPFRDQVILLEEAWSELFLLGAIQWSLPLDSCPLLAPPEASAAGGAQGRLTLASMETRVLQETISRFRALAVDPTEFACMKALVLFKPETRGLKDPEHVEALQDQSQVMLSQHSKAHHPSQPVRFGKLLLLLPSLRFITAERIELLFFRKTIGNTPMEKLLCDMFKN

Protein Tat = Protein Tat (Human immunodeficiency virus type 1 group M subtype B (isolate HXB2)(HIV-1), UniProt P04608); assay type: functional;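 further: tat binding to TAR RNA read out by fluorescence polarization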
Protein Tat, sequence (P04608 whole entry): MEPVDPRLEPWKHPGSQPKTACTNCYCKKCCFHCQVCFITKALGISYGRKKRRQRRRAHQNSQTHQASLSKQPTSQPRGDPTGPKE

[3] = NIH3T3 cell viability loss – ATP luminescence, mouse fibroblasts, counter-screen, dose response (AID 2010); assay type: functional, cell-based;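 further: cells exposed to compound for about 90 hours before reading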
[4] = viability loss in THP-1 monocytes – THP-1 cells, cytotoxicity control for Vif-APOBEC3G degradation inhibitor project, dose response (AID 1117359); assay type: functional; details: THP-1
cells [5] = assay: cells
[6] = Trypanosoma cruzi growth suppression in host cells – NIH3T3 host cells, beta-gal luminescence, confirmation (AID 2044); assay type: functional, cell-based;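 further: intracellular parasites grown in NIH/3T3 mouse fibroblasts as host cells; luminescent beta-galactosidase reporter signal from transgenic T. cruzi replicating inside host cells; inhibitors lower the luminescence signal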
Prothrombin = Prothrombin (Bos taurus, UniProt P00735); assay: thrombin protease inhibitors – biochemical, fluorescence polarization, uHTS hits, dose response (AID 602369); assay type: functional
[7] = target: 72 kDa type IV collagenase (Homo sapiens, UniProt P08253); assay: Dose Response validation of uHTS RPN11 inhibitor hits using a MMP-2 Fluorescence assay.; assay type: functional
72 kDa type IV collagenase, sequence (P08253 whole entry): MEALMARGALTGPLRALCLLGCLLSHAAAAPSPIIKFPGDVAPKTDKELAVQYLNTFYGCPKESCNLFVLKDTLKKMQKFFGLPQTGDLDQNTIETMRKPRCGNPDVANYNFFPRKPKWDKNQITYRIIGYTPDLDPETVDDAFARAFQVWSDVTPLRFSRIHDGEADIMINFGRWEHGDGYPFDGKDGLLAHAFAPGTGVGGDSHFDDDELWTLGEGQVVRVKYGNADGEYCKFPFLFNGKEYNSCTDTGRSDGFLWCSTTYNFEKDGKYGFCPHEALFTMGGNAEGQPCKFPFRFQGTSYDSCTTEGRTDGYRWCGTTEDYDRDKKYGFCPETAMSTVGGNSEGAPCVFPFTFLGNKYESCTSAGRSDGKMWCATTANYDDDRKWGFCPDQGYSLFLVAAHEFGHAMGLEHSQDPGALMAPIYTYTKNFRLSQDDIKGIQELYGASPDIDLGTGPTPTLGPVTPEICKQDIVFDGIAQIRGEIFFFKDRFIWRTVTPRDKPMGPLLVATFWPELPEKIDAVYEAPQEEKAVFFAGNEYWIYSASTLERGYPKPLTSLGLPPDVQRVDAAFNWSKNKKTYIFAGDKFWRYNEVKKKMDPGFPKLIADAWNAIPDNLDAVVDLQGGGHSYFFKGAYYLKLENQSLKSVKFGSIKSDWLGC

[8] = target: 26S proteasome non-ATPase regulatory subunit 14 (Homo sapiens, UniProt O00487); assay: inhibition of proteasome subunit RPN11 – biochemical, fluorescence polarization, uHTS hits, confirmation (AID 602368); assay type: functional
26S proteasome non-ATPase regulatory subunit 14, sequence (O00487 whole entry): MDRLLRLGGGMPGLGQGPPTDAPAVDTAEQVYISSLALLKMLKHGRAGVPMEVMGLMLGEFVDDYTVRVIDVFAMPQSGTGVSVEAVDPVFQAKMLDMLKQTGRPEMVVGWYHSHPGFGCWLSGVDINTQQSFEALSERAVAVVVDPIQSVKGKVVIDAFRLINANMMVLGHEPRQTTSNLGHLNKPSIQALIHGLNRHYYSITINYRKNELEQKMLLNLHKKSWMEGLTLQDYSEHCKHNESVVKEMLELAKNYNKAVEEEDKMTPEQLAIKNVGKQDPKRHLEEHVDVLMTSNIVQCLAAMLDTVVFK

[9] = target: T1, Tyrosine-protein phosphatase non-receptor type 7 (Homo sapiens, UniProt P35236); assay: HePTP tyrosine phosphatase activity blockers – biochemical, absorbance, leukemia target, primary screen (AID 521); assay type: functional
T1 sequence (P35236 whole entry): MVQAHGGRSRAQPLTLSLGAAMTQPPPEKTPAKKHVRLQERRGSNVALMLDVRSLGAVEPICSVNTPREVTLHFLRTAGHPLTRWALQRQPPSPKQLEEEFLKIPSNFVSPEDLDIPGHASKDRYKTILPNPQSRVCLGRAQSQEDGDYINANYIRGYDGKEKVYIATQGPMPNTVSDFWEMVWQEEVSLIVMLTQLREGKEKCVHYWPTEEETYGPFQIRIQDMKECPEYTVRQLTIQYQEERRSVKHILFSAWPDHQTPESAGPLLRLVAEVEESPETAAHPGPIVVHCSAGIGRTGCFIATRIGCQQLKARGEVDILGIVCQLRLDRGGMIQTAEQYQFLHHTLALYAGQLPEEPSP

[10] = Luminescence Cell-Based Dose Confirmation to Identify Activators of 5'UTR Stem-Loop Driven Alpha-Synuclein mRNA Translation in H4 Neuroglioblastoma Cells. [Related pubchem assays: 1829 (Project Summary), 1814 (Primary HTS)]; assay type: functional
H4 = assay: Luminescence Cell-Based Dose Response HTS to Identify Activators of 5'UTR Stem-Loop Driven Prion Protein mRNA Translation in H4 Neuroglioblastoma Cells. [Related pubchem assays: 1829 (Project Summary), 1814 (Primary HTS)]; assay type: functional; details: Homo sapiens
[11] = Luminescence Cell-Based Dose Response to Identify Activators of 5'UTR Stem-Loop Driven Prion Protein mRNA Translation in H4-C Neuroglioblastoma Cells. [Related pubchem assays: 1829 (Project Summary), 1814 (Primary HTS)]; assay type: functional
HeLa = assay: ATP-based viability loss in HeLa cells – cell-based, CellTiter-Glo luminescence, cherry-pick samples, cytotoxicity control for MITF activator project, dose response (AID 540259); assay type: functional; details: Homo sapiens
[12] = Luminescence Cell-Based Dose Confirmation HTS to Identify Activators of 5'UTR Stem-Loop Driven Alpha-Synuclein mRNA Translation in H4 Neuroglioblastoma Cells. [Related pubchem assays: 1829 (Project Summary), 1814 (Primary HTS)]; assay type: functional
[13] = Luminescence Cell-Based Dose Response HTS to Identify Activators of Luciferase Translation or Activity in H4 […] Cells. [Related pubchem assays: 1829 (Project Summary), 1814 (Primary HTS)]; assay type: functional
[14] = Luminescence Cell-Based Dose Response to Identify Activators of Luciferase Translation or Activity in H4-C Neuroglioblastoma Cells. [Related pubchem assays: 1829 (Project Summary), 1814 (Primary HTS)]; assay type: functional
Protein skinhead-1 = target: T2, Protein skinhead-1 (Caenorhabditis elegans, UniProt P34707); assay type: functional
T2 sequence (P34707 whole entry): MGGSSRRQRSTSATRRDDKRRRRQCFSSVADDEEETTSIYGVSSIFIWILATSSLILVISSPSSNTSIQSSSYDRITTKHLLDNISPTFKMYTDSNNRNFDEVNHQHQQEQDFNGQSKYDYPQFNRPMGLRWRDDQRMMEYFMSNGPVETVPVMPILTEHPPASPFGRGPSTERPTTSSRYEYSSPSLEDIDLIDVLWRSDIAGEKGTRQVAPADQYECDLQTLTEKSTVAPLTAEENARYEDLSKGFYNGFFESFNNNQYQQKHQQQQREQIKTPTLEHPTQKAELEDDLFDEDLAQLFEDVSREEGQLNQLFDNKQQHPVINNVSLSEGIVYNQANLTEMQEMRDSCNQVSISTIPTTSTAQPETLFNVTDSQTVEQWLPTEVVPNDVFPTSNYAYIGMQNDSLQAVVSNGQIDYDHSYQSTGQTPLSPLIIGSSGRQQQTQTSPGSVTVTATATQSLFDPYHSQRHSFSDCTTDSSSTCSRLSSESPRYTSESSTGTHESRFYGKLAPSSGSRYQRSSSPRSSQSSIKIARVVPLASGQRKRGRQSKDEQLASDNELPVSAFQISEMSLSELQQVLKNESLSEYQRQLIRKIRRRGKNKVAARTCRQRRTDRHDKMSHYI

[15] = DRD fibroblast viability loss – cell-based, non-viral oncogenic, luminescence, dose response (AID 1934); assay type: functional; details: Homo sapiens
[16] = Luminescence-based dose response cell-based high throughput screening assay for cytotoxic compounds using the IEC-6 intestinal epithelial cell line. [Related pubchem assays: 1858 (Summary AID.), 1825 (Counterscreen.), 1907 (Confirmation screen.)]; assay type: functional
[17] = target: T3, Nuclear receptor subfamily 0 group B member 1 (Homo sapiens, UniProt P51843); assay type: functional, cell-based;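 further: HEK293T cells transfected with SF-1 and DAX-1 plus StAR promoter luciferase reporter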
T3 sequence (P51843 whole entry): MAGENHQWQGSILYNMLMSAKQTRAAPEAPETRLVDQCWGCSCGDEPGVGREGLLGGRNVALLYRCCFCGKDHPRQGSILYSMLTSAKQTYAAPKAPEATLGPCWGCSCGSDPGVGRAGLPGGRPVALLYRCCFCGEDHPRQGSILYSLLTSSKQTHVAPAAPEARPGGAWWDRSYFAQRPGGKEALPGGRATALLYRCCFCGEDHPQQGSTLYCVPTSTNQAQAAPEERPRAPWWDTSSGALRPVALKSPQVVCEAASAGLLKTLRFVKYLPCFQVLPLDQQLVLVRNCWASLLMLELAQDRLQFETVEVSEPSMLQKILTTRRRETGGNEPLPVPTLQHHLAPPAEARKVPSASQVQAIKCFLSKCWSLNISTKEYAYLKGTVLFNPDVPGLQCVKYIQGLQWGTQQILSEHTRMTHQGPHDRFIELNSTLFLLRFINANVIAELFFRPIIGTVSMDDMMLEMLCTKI

cells [18] = assay type: functional, cell-based
cells [19] = assay type: functional, cell-based; remark: listed apart in the source
cells [20] = assay type: functional, cell-based; remark: listed apart in the source
BJ = assay: cells; assay type: functional, cell-based; details: Homo sapiens
[21] = CellTiter-Glo luminescence survival assay, SW480 colon tumor line, concentration-response curve, half-maximal inhibitory concentration (AID 1117338); assay type: functional
[22] = cytotoxicity toward Colo320 cells – cell-based, CellTiter-Glo luminescence, IC50, dose response (AID 1117334); assay type: functional; details: COLO 320
[23] = cytotoxicity toward HCT116 cells – cell-based, CellTiter-Glo luminescence, IC50, dose response (AID 1117332); assay type: functional; details: HCT-116
[24] = cytotoxicity toward HT-29 cells – cell-based, CellTiter-Glo luminescence, IC50, dose response (AID 1117330); assay type: functional
[25] = Reduced DLD-1 viability, concentration-response, CellTiter-Glo luminescence (AID 1117352); assay type: functional
Cytochrome P450 2C9 = Cytochrome P450 2C9 (Homo sapiens, UniProt P11712); details: Potency
Cytochrome P450 2C9, sequence (P11712 whole entry): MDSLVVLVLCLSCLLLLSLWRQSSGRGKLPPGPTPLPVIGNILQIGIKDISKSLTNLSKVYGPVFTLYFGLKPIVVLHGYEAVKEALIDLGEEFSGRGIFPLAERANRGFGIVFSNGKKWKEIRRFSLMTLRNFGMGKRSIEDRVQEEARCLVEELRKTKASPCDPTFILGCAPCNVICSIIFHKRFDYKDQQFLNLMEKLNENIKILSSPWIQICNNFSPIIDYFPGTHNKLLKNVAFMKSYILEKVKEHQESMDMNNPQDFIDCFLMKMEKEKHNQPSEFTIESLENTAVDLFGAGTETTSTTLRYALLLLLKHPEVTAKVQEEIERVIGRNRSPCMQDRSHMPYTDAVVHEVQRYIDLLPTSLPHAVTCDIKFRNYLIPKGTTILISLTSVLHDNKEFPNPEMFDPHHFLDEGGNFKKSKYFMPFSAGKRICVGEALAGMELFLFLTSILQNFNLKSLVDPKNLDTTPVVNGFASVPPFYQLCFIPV

[26] = RKO cell viability reduction, dose response, CellTiter-Glo luminescence (AID 1117322); assay type: functional
[27] = SNU-C1 cell viability reduction, dose response, CellTiter-Glo luminescence (AID 1117323); assay type: functional, cell-based

SMILES: Cc1cccc(OCc2nnc(SCC(=O)NC3CCCC3)n2C)c1
- IC50 [1]: 4.79 µM (active)
- IC50 [2]: 6.66 µM (active)

SMILES: Cc1cc(S(=O)(=O)N(Cc2ccccn2)Cc2ccco2)ccc1-n1cnnn1
- IC50 (Protein Tat): > 100 µM (active)

SMILES: Cc1ccc(CNC(=O)CCC2CCCN(Cc3cc4ccccc4o3)C2)o1 (centres undefined)
- EC50 [3]: > 30 µM (not active)
- CC50 [4]: 33.8 µM (active)
- EC50 (cells [5]): 0.222 µM (active)
- EC50 [6]: < 0.1 µM (active)

SMILES: C#CCn1/c(=N/C(=O)c2cccs2)sc2cccc(OC)c21
- IC50 (Prothrombin): > 100 µM (inactive)
- IC50 [7]: > 100 µM (inactive)
- IC50 [8]: 24.9 µM (active)
- IC50 [9]: > 100 µM (not active)

SMILES: O=C(Nc1ccccc1)O/N=C/c1ccc(F)cc1
- EC50 [10]: 0.321 µM (active)
- EC50 (H4): 8.27 µM (active)
- EC50 [11]: 0.477 µM (active)
- AC50 (HeLa): 54.2 µM (active)
- EC50 [12]: < 0.1 µM (active)
- EC50 [13]: < 0.1 µM (active)
- EC50 [14]: 0.372 µM (active)
- IC50 (Protein skinhead-1): > 100 µM (inactive)

SMILES: O=C(N/N=C/C(Br)=C\c1ccccc1)c1[nH]nc2c1CCC2
- EC50 [15]: 0.3 µM (inconclusive)
- IC50 [16]: 0.183 µM (active)
- IC50 [17]: > 0.834 µM (active)
- EC50 (cells [18]): > 350 µM (not active)
- EC50 (cells [19]): 17.8 µM (active)
- IC50 (cells [20]): > 67.5 µM (inactive)
- EC50 (BJ): 0.223 µM (inconclusive)

SMILES: CCc1cccc2c3c([nH]c12)C(CC)(CC(=O)O)OCC3 (centres undefined) [ETODOLAC]
- IC50 [21]: > 20 µM (inactive)
- IC50 [22]: > 20 µM (inactive)
- IC50 [23]: > 20 µM (inactive)
- IC50 [24]: > 20 µM (inactive)
- IC50 [25]: > 20 µM (inactive)
- AC50 (Cytochrome P450 2C9): 39.8 µM (inconclusive)
- IC50 [26]: > 20 µM (inactive)
- IC50 [27]: > 20 µM (inactive)
